The record followed here is ChEMBL document CHEMBL4196244, “Matrine-Type Alkaloids from the Roots of Sophora flavescens and Their Antiviral Activities against the Hepatitis B Virus” (J Nat Prod, 2018).

SMILES strings stand for the structures. The source made the active and inactive calls. The rule behind the calls is not given here.

The subject of data set [1] is Hepatitis B virus. Nature of the data set: Antiviral activity against HBV infected in human HepG2.2.15 cells assessed as inhibition of HBeAg secretion at 0.4 mM supplemented with fresh medium containing compound every 3 days for 9 days measured after 9 days by ELISA relative to control. It is filed as functional. (In an ELISA, binding on a coated surface is turned into a signal by an enzyme label.)

Data set [2] is described as follows: Cytotoxicity against human HepG2.2.15 cells assessed as growth inhibition at 0.8 mM by MTT assay relative to control. It is filed as cell-based, HepG2 2.2.15. As to conditions: read-out: GI. Background: Tetrazolium assays rely on reduction of a dye to a coloured formazan, in cell work by metabolically active cells.
Data set [3] relates to Hepatitis B virus. The data set is described as follows: Antiviral activity against HBV infected in human HepG2.2.15 cells assessed as inhibition of HBsAg secretion at 0.4 mM supplemented with fresh medium containing compound every 3 days for 9 days measured after 9 days by ELISA relative to control. The data set is classed as functional.
The subject of data set [4] is Hepatitis B virus. Nature of the data set: Antiviral activity against HBV infected in human HepG2.2.15 cells assessed as inhibition of HBeAg secretion at 0.2 mM supplemented with fresh medium containing compound every 3 days for 9 days measured after 9 days by ELISA relative to control. It is filed as functional.
Data set [5] in a line: Cytotoxicity against human HepG2.2.15 cells assessed as growth inhibition at 0.4 mM by MTT assay relative to control. The data set is classed as cell-based, HepG2 2.2.15. As to conditions: read-out: GI.
Data set [6] has as its system Hepatitis B virus. Nature of the data set: Antiviral activity against HBV infected in human HepG2.2.15 cells assessed as inhibition of HBsAg secretion at 0.2 mM supplemented with fresh medium containing compound every 3 days for 9 days measured after 9 days by ELISA relative to control. The data set is classed as functional.
Data set [7] concerns Hepatitis B virus. The data set is described as follows: Antiviral activity against HBV infected in human HepG2.2.15 cells assessed as inhibition of HBeAg secretion at 0.8 mM supplemented with fresh medium containing compound every 3 days for 9 days measured after 9 days by ELISA relative to control. The data set is classed as functional.
For data set [8], the system named is Hepatitis B virus. Nature of the data set: Antiviral activity against HBV infected in human HepG2.2.15 cells assessed as inhibition of HBsAg secretion at 0.8 mM supplemented with fresh medium containing compound every 3 days for 9 days measured after 9 days by ELISA relative to control. It is filed as functional.
A short description of data set [9]: Cytotoxicity against human HepG2.2.15 cells assessed as growth inhibition at 1 mM by MTT assay relative to control. It is filed as cell-based, HepG2 2.2.15. The following applies: read-out: GI.
For data set [10], the system named is Hepatitis B virus. The data set is described as follows: Antiviral activity against HBV infected in human HepG2.2.15 cells assessed as inhibition of HBsAg secretion at 1 mM supplemented with fresh medium containing compound every 3 days for 9 days measured after 9 days by ELISA relative to control. The data set is classed as functional.
Data set [11] concerns Hepatitis B virus. Nature of the data set: Antiviral activity against HBV infected in human HepG2.2.15 cells assessed as inhibition of HBeAg secretion at 1 mM supplemented with fresh medium containing compound every 3 days for 9 days measured after 9 days by ELISA relative to control. The data set is classed as functional.

In the case of `O=C1CCC[C@@H]2[C@H]3CCCN4CCC[C@@H](CN12)[C@@H]34` [MATRINE], the “inhibition (INH)” value in the data set on Hepatitis B virus [1] is 16.8%; with Hepatitis B virus [3] it was 34.7%. Moreover, the inhibition at 800 µM in data set [2] was no less than 25%.

Take `O=C(O)CCCc1ncc2c3c1CCCN3CCC2`: the “inhibition (INH)” value with Hepatitis B virus [1] is reported as 33.2%; in the data set with Hepatitis B virus [3] it was 37.2%. In data set [2], the inhibition at 800 µM is no less than 25%.

With `O=C1CCC[C@@H]2[C@H]3CCC[N+]4([O-])CCC[C@@H](CN12)[C@@H]34` (stereo partly specified) [OXYMATRINE], the “inhibition (INH)” value with Hepatitis B virus [1] was 20.3%; in the data set with Hepatitis B virus [3], 38.3%. Further, the inhibition at 800 µM in [2] is no less than 25%.

Take `O=C(O)CCCC1=NCC2CCCN3CCCC1=C23` (racemic): the “inhibition (INH)” value is reported as 15.1% with Hepatitis B virus [1] and 29.8% with Hepatitis B virus [3]. Moreover, the inhibition at 800 µM in [2] was no less than 25%.

On to `O=C(CCCc1ncc2c3c1CCCN3CCC2)N1CCCCC1`, for which the “inhibition (INH)” value in the data set with Hepatitis B virus [4] is given as 38%; with Hepatitis B virus [6] it was 44.3%. Also, in data set [5], the inhibition at 400 µM was no less than 25%.

In the case of `O=C1CCCC2=C3CCCN4CCC[C@@H](CN12)[C@@H]34`, the “inhibition (INH)” value in the data set with Hepatitis B virus [1] is 29.9%; in the data set with Hepatitis B virus [3], 22.4%. Moreover, the inhibition at 800 µM in [2] was no less than 25%.

For the molecule `O=C1CCC[C@@H]2[C@H]3CCCN4CCC[C@H](CN12)[C@@H]34` [SOPHORIDINE], the “inhibition (INH)” value in the data set with Hepatitis B virus [1] is 21.9%; in the data set on Hepatitis B virus [3], 40.2%. Besides, the inhibition at 800 µM in data set [2] is no less than 25%.

For the molecule `O=C1CC[C@H]2[C@@H]3[C@H](CCCN13)CN1C(=O)CCC[C@H]21`, the “inhibition (INH)” value in the data set on Hepatitis B virus [1] is reported as 18.3%; in the data set with Hepatitis B virus [3], 32.5%. In data set [2], the inhibition at 800 µM was no less than 25%.

Regarding `O=C1CCC[C@@H]2[C@H]3CCCN4CCC[C@H](CN12)[C@H]34`, the inhibition entry in the data set on Hepatitis B virus [1] is “inactive”. The inhibition at 800 µM in data set [2] was no less than 25%. Also, in the data set on Hepatitis B virus [3], the “inhibition (INH)” value is on record as 13.8%.

In the case of `O=C(O)CCC[C@@H]1N=CC2=C3[C@H]1CCCN3CCC2`, the “inhibition (INH)” value with Hepatitis B virus [1] is 16.8%; in the data set on Hepatitis B virus [3], 30.8%. Further, the inhibition at 800 µM in data set [2] was no less than 25%.

As for `O=C1CCCC2=C3CCC[N+]4([O-])CCC[C@@H](CN12)[C@@H]34` (stereo partly specified), the “inhibition (INH)” value in the data set with Hepatitis B virus [7] is given as 22.6%; in the data set on Hepatitis B virus [8] it was 25.4%. Also, in [9], the inhibition at 1000 µM was no less than 25%.

With `Nc1ccn([C@@H]2CS[C@H](CO)O2)c(=O)n1` [LAMIVUDINE], the “inhibition (INH)” value in the data set on Hepatitis B virus [10] is recorded as 31.5 - 32.6%; in the data set on Hepatitis B virus [11], 37.5%.

As to `O=C1CCC[C@@H]2[C@H]3CCCN4CCC[C@@H](CN12)[C@H]34`, the entries for the “inhibition (INH)” value with Hepatitis B virus [1] and in the data set on Hepatitis B virus [3] were 17.7% and 26.3%, respectively. The inhibition at 800 µM in data set [2] is no less than 25%.

Consider `O=C1CCCN2CCC[C@](O)(CN3C(=O)CCC[C@H]13)C2=O`, for which the inhibition entry in the data set with Hepatitis B virus [1] was “inactive”. Besides, in [2], the inhibition at 800 µM was no less than 25%. The “inhibition (INH)” value in the data set on Hepatitis B virus [3] was 14.1%.

Consider `O=C1CCCN2CCC[C@](O)(C2=O)[C@H]2CCCC(=O)N2C1`, for which the results for the “inhibition (INH)” value with Hepatitis B virus [1] and in the data set on Hepatitis B virus [3] were 40.4% and 46%, respectively. Further, the inhibition at 800 µM in data set [2] was no less than 25%.

In the case of `O=C1CC[C@H]2C3=C(CCCN13)CN1C(=O)CCC[C@H]21`, the “inhibition (INH)” value came to 38.8% in the data set with Hepatitis B virus [4] and 33% in the data set on Hepatitis B virus [6]. In addition, the inhibition at 400 µM in data set [5] is no less than 25%.

With `O=c1cccc2n1C[C@@H]1CCCN3CCC[C@H]2[C@H]13`, the figures for the “inhibition (INH)” value in the data set with Hepatitis B virus [7] and in the data set on Hepatitis B virus [8] were 13.5% and 29.5%, respectively. Also, in data set [9], the inhibition at 1000 µM was no less than 25%.

As to `O=C1[C@@H](O)CC[C@@H]2[C@H]3CCCN4CCC[C@@H](CN12)[C@@H]34`, the entries for the “inhibition (INH)” value in the data set on Hepatitis B virus [1] and with Hepatitis B virus [3] were 18.5% and 33.2%, respectively. Further, the inhibition at 800 µM in data set [2] is no less than 25%.

For the molecule `O=C1CCC[C@@H]2[C@H]3CCCN4CCC[C@@](O)(CN12)[C@@H]34`, the “inhibition (INH)” value in the data set with Hepatitis B virus [4] was found to be 28.4%; in the data set on Hepatitis B virus [6] it was 33.8%. In data set [5], the inhibition at 400 µM is no less than 25%.
